# Test results taken from US20130005802A1, “TREATMENT OF WNT/FRIZZLED-RELATED DISEASES” (priority 2009, published 2013).
# Experiments:
# [1] = target: Frizzled1-GFP (Rattus norvegicus, UniProt Q08463); assay: Co-localization of internalized Frizzled1-GFP with β2-adrenergic receptor-RFP or Transferrin; type: cell-based
# Method: To remove remaining surface bound Tf, the cells were exposed to unlabeled transferrin (10 mg/mL) for 2 min at room temperature. The cells were then fixed with 4% paraformaldehye, and imaged with a LSM510 confocal microscope (Zeiss).
# Many classes of membrane receptors internalize in clathrin coated pits. In particular, β2-adrenergic receptors are prototypical for clathrin-dependent internalization of G protein-coupled receptors (Barak, L. S., et al. Mol Pharmacol 1997, 51, 177-184; Goodman, O. B., Jr., et al. Nature 1996, 383, 447-450, both are incorporated herein by reference in their entireties), and Transferrin is a well-documented standard for clathrin-mediated internalization in general (Mellman, I. Annu Rev Cell Dev Biol 1996, 12, 575-625, incorporated herein by reference). It was examined whether internalized Frizzled1-GFP co-localizes with either β2-adrenergic receptor-RFP or Transferrin in intracellular vesicles. FIG. 6A-6C show confocal images of unstimulated U2OS cells expressing both β2-adrenergic receptor-RFP (β2AR-RFP, FIG. 6A) and Frizzled1 receptors (Fzd1-GFP, FIG. 6B) prior to activation.
# The merged image is presented in (FIG. 6L), wherein arrowheads indicate co-localized vesicles.
# [2] = test system: HCT116 cells; assay: MTT assay, HCT116; type: cell-based
# Method: AsPC-1 tumor cells were cultured with T cells at a 1:5 ratio for 7 days in the presence of MEDI-565 or Cont BiTE (100 ng/mL). On day 7, floating cells were discarded and only adherent AsPC-1 cells were harvested with 0.05% trypsin/EDTA and washed with PBS three times. 1×10^4 AsPC-1 tumor cells were added to each well of 96 well flat bottom plates in 200 μL of complete RPMI1640 medium. The cells were allowed to adhere to the plates overnight at 37° C. (day 0) and were further incubated for 1, 2, 4 or 7 days. 20 μL of 10×MTT (3-[4,5-dimethylthiazol-2-yl]-2,5-diphenyl-tetrazolium bromide, 5 mg/mL) solution was added to each well, and incubated at 37° C. for 2 hr. The adherent cells were lysed with 150 μL of dimethyl sulfoxide (DMSO) and the optical density (OD) at 550 nm was measured.
# Colorectal cancer cell lines were incubated in 96-well flat-bottomed plates at 5,000 cells per well in 200 μL of complete RPMI1640 medium. The cells were allowed to adhere to the plates overnight at 37° C. (day 0). […] Then 20 μL of 10×MTT solution was added to each well and incubated at 37° C. for 2 hr. The adherent cells were lysed with 150 μL of DMSO, and then optical density (OD) at 562 nm was measured. DMSO or culture medium was used as a control.
# MTT assay was performed at each time point.
# [3] = test system: β-catenin; assay: Western blot of cytosolic β-catenin in colorectal cancer cells; type: cell-based
# Method: CRC explants and colorectal cancer cell lines were cultured in 6-well plates. […] After washing cells with PBS three times, hypotonic lysis buffer consist of 10 mM Tris-HCl, pH7.4 and 0.2 mM MgCl2, supplemented with 1× Halt Protease and Phosphatase Inhibitor Cocktail (Thermo Scientific Pierce Protein Research Products, Rockford, Ill.) were applied to make cell lyates for Western Blot.
# After washing cells with PBS, cell lysates were made with hypotonic lysis buffer.
# [4] = test system: HCT116 tumors; assay: In vivo anti-tumor effect, HCT116 tumors; parameters: species or system NOD/SCID mice
# Method: (§1) HCT116 colon cancer cells were harvested from flasks with 0.05% Trypsin/EDTA, washed with PBS, and resuspended with Hanks buffered solution at 5×10^6 cells/100 μL concentration. CRC explants (CRC039) cultured in vitro were harvested with the same procedure, and mixed with equal volume of Matrigel to make 1×10^6 cells/100 μL concentration. A hundred μL of cell suspension was inoculated to the flank of NOD/SCID mice 4 days before the start of treatment. […] Tumor size was measured 3 times a week until mice were sacrificed.
# (§2) HCT116 colon cancer cells were harvested from flasks with 0.05% Trypsin/EDTA and resuspended with Hanks buffered solution at 5×10^6 cells/100 μL concentration. CRC explants (CRC039) cultured in vitro were harvested with the same procedure and mixed with equal volume of Matrigel to make 1×10^6 cells/100 μL concentration. The cell suspension (100 μL) was inoculated into the flank of NOD/SCID mice 4 days before the start of treatment. […] Initially, 2 weeks of treatment was planned for both HCT116 and CRC039. However, treatment was extended to 3 weeks for CRC039 cells because the […] grew much slower than the HCT116 cell line. Tumor size was measured 3 times a week until mice were euthanized.
# [5] = test system: CRC039 tumors; assay: In vivo anti-tumor effect, CRC039 explant tumors; parameters: species or system NOD/SCID mice; conditions: 10, 100 or 200 mg/kg gavage, 6 days per week, 3 weeks
# Method: as §1, §2
# [6] = Side effects during in vivo treatment; parameters: species or system NOD/SCID mice; conditions: up to 200 mg/kg gavage, 2-3 weeks
# Method: as §2
# Frizzled1-GFP, sequence (Q08463 69-641): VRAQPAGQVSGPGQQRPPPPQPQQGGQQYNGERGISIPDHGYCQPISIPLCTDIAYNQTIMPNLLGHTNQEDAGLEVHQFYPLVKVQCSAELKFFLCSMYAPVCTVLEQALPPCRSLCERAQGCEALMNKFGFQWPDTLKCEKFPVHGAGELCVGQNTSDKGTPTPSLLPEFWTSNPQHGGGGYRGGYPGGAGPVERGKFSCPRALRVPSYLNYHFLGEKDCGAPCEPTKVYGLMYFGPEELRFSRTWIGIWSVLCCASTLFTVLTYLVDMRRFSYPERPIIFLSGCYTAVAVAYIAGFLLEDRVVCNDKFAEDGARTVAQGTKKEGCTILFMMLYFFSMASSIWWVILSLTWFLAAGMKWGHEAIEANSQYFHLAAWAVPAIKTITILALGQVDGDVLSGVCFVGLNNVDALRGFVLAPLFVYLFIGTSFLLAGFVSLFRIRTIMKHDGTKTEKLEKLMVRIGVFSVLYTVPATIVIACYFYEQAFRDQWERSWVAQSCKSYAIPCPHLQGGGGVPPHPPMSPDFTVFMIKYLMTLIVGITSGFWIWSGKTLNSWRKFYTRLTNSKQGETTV
structure (smiles),measurement,setting,value
O=C(Nc1ccc([N+](=O)[O-])cc1Cl)c1cc(Cl)ccc1O [niclosamide],co-localization of Fzd1-GFP with β2AR-RFP,"[1]; […] niclosamide and 0.1 μM isoproterenol, 2 hr or 6 hr",multiple overlapping intracellular distributions
same,co-localization of internalized Transferrin with internalized Frizzled1,"[1]; […] niclosamide, Transferrin 100 μg/mL, 2 hr",significant co-localization
same,cytotoxic effect compared with 10 μM oxaliplatin,"[2]; 2 μM, 72 hr",stronger cytotoxic effect
same,"proliferation (MTT, OD 562 nm), sensitivity among three cell lines","[2]; 0.4, 2, 10 μM, 72 hr",most sensitive
same,% proliferation over time,"[2]; 0.4, 2, 10 μM, 24-96 hr",sensitive
same,concentration at which cells were killed over time,[2]; 24-96 hr,0.4 µM
same,cytosolic β-catenin expression,"[3]; CRC057 and HCT116, 1, 5, 10 μM, 18 hr",downregulated
same,cytosolic β-catenin expression,[3]; HT29 cells,milder change
same,tumor volume vs control,"[4]; 200 mg/kg gavage, after two weeks",less than half a volume
same,tumor growth,"[4]; 10, 100 or 200 mg/kg gavage, 6 days per week, 2 weeks",significantly inhibited the growth
same,tumor growth,[5],significantly inhibited the growth
same,side effects during treatment,[6],no obvious side effect
